Measurements published in patent publication US8557851B2, “Combinations of flupirtine and sodium channel inhibiting substances for treating pains” (MEDA Pharma GmbH & Co. KG, priority 2003, dated 2013).

Experiments:
[1] = tested on: reserpine-induced skeletal muscle rigidity; experiment: Muscle-relaxing effect on reserpine-induced muscular rigidity in rats; assay type: in vivo, rat (male Sprague-Dawley); conditions: Rattus norvegicus, ip, read-out: ED50, reduction of reserpine-induced skeletal muscle rigidity
Protocol: Male Sprague-Dawley rats weighing 200-220 g were kept in groups of two under standard conditions (temperature 22° C., humidity 40-60%) without any restriction in food or water. Illumination was provided from 6 a.m. to 6 p.m. The experiments were approved by the local animal health committee which was responsible for the protection and proper use of experimental animals.
The experimental approach has already been described in detail (Nickel et al. Arzn Forsch/Drug Res 1997; 47:1081-6). In brief, the rigidity of the skeletal muscle was measured by consecutively measuring the resistance of the flexor and extensor muscles which act in opposition when stretching and bending the foot in the joint. The pressure differences which were generated by the movement of the foot were recorded continuously. The signals were analyzed using a PC program which calculated the resistances of the flexor and extensor at the foot over periods of 10 min.
The active compounds were prepared freshly every day and were administered simultaneously i.p. at various doses 16 h after the reserpine injection (2 mg/kg, intraperitoneally).
The statistical analysis of the differences between the calculated and measured values was performed by means of a one-way. ANOVA. Asterisks (*) denote the significant level p<0.01.

[2] = tested on: skeletal muscle tone of conscious mice; experiment: Skeletal muscle tone in mice in the inclined screen test; assay type: in vivo, mouse (NMRI); conditions: Mus musculus, ip, single substance, read-out: ED50, decrease of skeletal muscle tone (inclined screen test)
Protocol: NMRI mice weighing 22-24 g were kept in groups of four under standard conditions (temperature 22° C., humidity 40-60%) without any restriction in food and water. Illumination was provided from 6 a.m. to 6 p.m. All the experiments were approved by the local animal health committee which was responsible for the protection and proper use of experimental animals.
What is termed the “30 degrees inclined screen test” (Simiand et al., Arch Int Pharmacodyn Ther 1989; 297:272-85) was used as a pharmacological model which enables predictions to be made regarding muscle-relaxing properties. The inclined screen consists of a wooden frame containing a wire gauze screen which can be inclined at any arbitrary angle (in this present case: […]). The lower part of the screen is located 15 cm above the table. The animals are placed on the inclined screen and their ability to remain on the inclined screen is observed over a period of 30 s. The number of animals which fall from the screen is counted and the proportion it represents of the total number in each group is calculated. The active compounds were prepared freshly every day and were administered simultaneously i.p. at various doses, at 1 h before beginning the experiments, for analyzing the skeletal muscle tone.
The statistical analysis of the differences between the calculated and measured values were performed by means of a one-way ANOVA. […]

| Compound | ED50 [1] [mg/kg] | ED50 [2] [mg/kg] |
| --- | --- | --- |
| CCOC(=O)Nc1ccc(NCc2ccc(F)cc2)nc1N [flupirtine] | 6.45 | 10.8 |
| Cc1ccc(C(=O)C(C)CN2CCCCC2)cc1 (stereo not shown) [tolperisone] | 32.4 | 51 |
